From patent US10618875B2 (priority 2017, dated 2020)
Where a name gives a salt, the structure may show the parent alone.

Assays:
[1] = system: Hep3B-luc human liver tumor; set-up: species or system BALB/c nude mice; details: mouse
NCI-60 cell lines = assay: cells; type: cell-based, human
[2] = in vivo
[3] = mouse, in vivo

CNC(=O)c1cc(Oc2ccc(NC(=O)Nc3ccc(Cl)c(C(F)(F)F)c3)cc2)ccn1 [Sorafenib, Sorafenib Tosylate]
BLI (in vivo bioluminescence) of Hep3B-luc tumor [1]: showed a trend toward having an effects on decreasing BLI

O=[N+]([O-])c1ccc(O)c([N+](=O)[O-])c1 [DNP, 2,4-dinitrophenol]
delta of growth percent across all cell lines tested (NCI-60 cell lines): 28.44%
range of growth percent across all cell lines (NCI-60 cell lines): 44.43%
activity at 10 µM (NCI-60 cell lines; Homo sapiens, 48 h, read-out: mean growth percent of control across the NCI-60): 98.4%
inhibition at 10 µM (NCI-60 cell lines; Homo sapiens, read-out: growth inhibition in any of the NCI-60 cell lines): < 50%
animals that died ([2]; male, C57BL/6, mouse): 50%
LD50 ([2]; mouse, po): 100 mpk
blood creatinine [3]: raised blood creatinine
